From patent US9702875B2 (priority 2006, dated 2017)
Where a SMILES comes first, the peptide text is derived from it. The star is where a group is joined. Cbz = O=C(OCc1ccccc1)*

Experiments:
ERCC1 protein isoforms = test: Western blot of ERCC1 protein isoforms after proteasome inhibition; assay type: cell-based, human; conditions: 2 μM for 24 h
Protocol: Proteins were extracted by lysis in RIPA buffer (50 mM Tris, 150 mM NaCl, 5 mM EDTA, 0.5% sodium deoxycholic acid, 0.5% NP-40, 0.1% SDS) supplemented with a protease inhibitor cocktail (Complete; Roche Molecular). For nucleus and cytoplasm protein, a first extraction and separation was done with a buffer containing 10 mM HEPES, 10 mM KCl, 1 mM DTT, 1 mM PMSF and protease inhibitor cocktail supplemented with 0.3% NP40. The nucleus fraction was next resuspended in a buffer containing 20 mM HEPES and 400 mM NaCl. Protein were then separated by SDS-PAGE and transferred to nitrocellulose membranes by the iBlot® 7-Minute Blotting System (Invitrogen). Blots were incubated with primary and secondary peroxidase-conjugated antibodies and chemiluminescent detection was done using the Dura HRP Substrate (Thermo scientific).
For proteasome inhibition, cells were treated with MG132 (Merck) at 2 μM for 24 h.

[1] = test system: cell lines without ERCC1-202 isoform expression (A549 ERCC1-deficient); test: Cell cycle / DNA content by flow cytometry after cisplatin; assay type: cell-based, human; conditions: 30 and 300 nM for 48 hours
Protocol: To study effect of cisplatin on cell cycle arrest, cells were treated with 30 nM or 300 nM of cisplatin for 48 h. For high DNA content analysis, cells were blocked in G2/M cell cycle phase with Karyomax colcemid solution (Gibco-Invitrogen) at 0.1 μg/ml for 6 h.
DNA content was determined in ethanol-fixed cells, stained with propidium iodide and analyzed using a Becton Dickinson FACScalibur flow cytometer and the CellQuest Pro software.

Structure (SMILES)	ERCC1 isoform protein expression level after proteasome inhibition (ERCC1 protein isoforms)	cells blocked in G2/M cell cycle phase [1]
CC(C)C[C@@H](C=O)NC(=O)[C@H](CC(C)C)NC(=O)[C@H](CC(C)C)NC(=O)OCc1ccccc1 [MG132] (Cbz-Leu-Leu-Leu-aldehyde)	increase in ERCC1-201, -203 and -204 expression level	–
N.N.[Cl][Pt][Cl] [cisplatin]	–	60-80%
